The target in this test is T1, gp41 of HIV-1 (Human immunodeficiency virus type 1 group M subtype B, UniProt P03375).
T1 construct: cell-cell fusion induced by gp41 of HIV-1 expressed in CHO cells; expressed in transfected cells; host or cells: CHO cells (effector), co-cultured with CD4-expressing HeLa cells (target)
In kind it is cell-based, HIV-1 (BH10 isolate). As to conditions: 20 nM T-20, positive inhibition control, 37° C., 16 hours.

T1 sequence (P03375 512-856): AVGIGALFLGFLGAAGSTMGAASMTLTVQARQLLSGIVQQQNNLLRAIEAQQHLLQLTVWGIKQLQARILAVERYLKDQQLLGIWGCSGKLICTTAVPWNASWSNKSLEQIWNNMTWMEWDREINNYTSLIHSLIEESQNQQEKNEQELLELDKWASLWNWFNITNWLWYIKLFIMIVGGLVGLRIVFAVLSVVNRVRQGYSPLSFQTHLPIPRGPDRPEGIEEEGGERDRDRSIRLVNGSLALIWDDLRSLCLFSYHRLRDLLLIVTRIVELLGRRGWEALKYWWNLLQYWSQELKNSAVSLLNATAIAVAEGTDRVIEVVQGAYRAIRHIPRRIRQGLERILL
Procedure: The effect has been measured as the inhibition of cell-cell fusion induced by gp41 of HIV-1 expressed in CHO cells, which takes place when they are mixed with CD4 receptor-expressing HeLa cells (BH10 isolate: Gene Bank access number M15654). The oligopeptide concentration was 5 μM and the temperature was 37° C. Incubation in the cell culture medium (GMEM-S supplemented with 1 mM sodium pyruvate and 0.4 mM methionine sulfoximine) was performed for 16 hours. The bars correspond to the number of nuclei in syncytial plates (fused cells with more than 4 nuclei) per field after this time. The means of 4 individual measurements plus the standard deviations are shown.
As a positive inhibition control, cells treated with 20 nM of T-20 (enfuvirtide) are shown. The sample, in the sole presence of gqidev, was processed following the protocol described in the preceding figure.
The lines represent adjustments to hyperbolic-type functions. The assay, in the presence of increasing quantities of oligopeptides, was performed and quantified in accordance with the description of FIG. 3. […]
It was added, at a concentration of 5 μM (micromolar), to the cell culture medium (GMEM-S supplemented with 1 mM sodium pyruvate and 0.4 mM methionine sulfoximine). […] The activity of gp41 is detected by the formation of multi-nucleated cells (CTL panel) produced by the fusion of the plasma membranes.

Take enfuvirtide: the “inhibitory effect on gp41 activity (cell-cell fusion, formation of syncytia)” value is “comparable inhibition of gp41”.
